# Source: patent US11123279B2, “Cosmetic composition and the use thereof for regulating skin quality” (priority 2016, dated 2021)
# Read-outs that look alike come from different tables or passages of the source.
# Tests used:
# B16 melanocyte cells [1] = test: B16 cell melanogenesis inhibition assay; assay type: cell-based
# B16 melanocyte cells [2] = system: B16 melanocyte cells
# Description: Cytotoxicity activities to determine cell viability were obtained as follows. B16 melanocyte cells were plated in a 24 well-plate one day before the actual assay. Fresh DMEM (with phenol red) containing 10% FBS was added to dilute the cells to an appropriate density, 0.025×10^6 cells for a 24 well-plate. 1 ml of the DMEM with 10% FBS was added to each well. […] The well-plate with treated cells were then left in the incubator at 37° C., 5% CO2 for approximately 16 hours overnight. The media was removed and 1 ml of PBS solution was added into each well to wash and remove the colour of the phenol red in the DMEM. Then, 1 ml of fresh PBS was added into each individual well. 15 μl of the prepared Resazurin stock solution was added (8 μg/ml) into each well containing the compounds. The Resazurin stock solution was prepared by adding 800 μg of Resazurin sodium salt in 10 ml of PBS (pH 7.4) to make a concentration of 80 μg/ml, which was further diluted by adding 0.1 ml of the 80 μg/ml solution to 0.9 ml of PBS to make 8 μg/ml of stock solution. The well-plates were incubated at 37° C. for 2 hours. The plate was immediately read, after 2 hours, using a BioTek Synergy HTX multi-mode reader at an emission and excitation wavelength of 600 nm and 528 nm respectively, with a gain of 35. The results were automatically recorded in an excel spreadsheet.
# Pseudomonas aeruginosa = test: Antimicrobial activity, resistance of cream to microbial contamination; assay type: cell-based; details: tested individually at 0.05%
# [3] = system: arm skin of Southeast Asian women; details: in vivo
# From the text: The cream base used for blending the active ingredients contained the ingredients as follows: Aqua, Butyrospermum parkii, caprylic/capric triglyceride, C12-15 alkyl benzoate, cetearyl isononanoate, cyclomethicone, butylene glycol, hydroxyethyl acrylate, sodium dimethyl taurate copolymer, Aloe barbadensis leaf juice.
# [4] = Viscosity measurement of creams; assay type: physicochemical; details: 0.5 wt % in base cream of 25,000 mPa·s
# Description: Rheological properties of the creams with different cosmetic compositions were evaluated based on viscosity measurements. The individually tested samples were dissolved in a base cream (control) with a viscosity of 25,000 mPa·s. The cream base used for blending the active ingredients contained the ingredients as follows: Aqua, Butyrospermum parkii, caprylic/capric triglyceride, C12-15 alkyl benzoate, cetearyl isononanoate, cyclomethicone, butylene glycol, hydroxyethyl acrylate, sodium dimethyl taurate copolymer, Aloe barbadensis leaf juice. The cream base was white in colour, with a pH ranges between 4.5 and 5.5.
# [5] = system: arm skin of Southeast Asian women; test: Subject self-assessment questionnaire and preference in the skin lightening study (Example 1); assay type: in vivo, human; details: by day 14 of the trial
# From the text: Table V illustrates the ranking of the various compositions from best to worst based on user satisfaction measurements. The questionnaire was formulated to include the questions such as: 1) what were your first impressions after application of the various compositions? 2) How quickly do you expect to see a lightening effect? 3) Are you satisfied with the quality of skin lightening achieved? 4) How many days after the first application of the various compositions did you observe a lightening effect? 5) are you satisfied with the quality of skin lightening achieved? 6) How many days after the first application of the test product did you observe a lightening effect?
# Indian and Chinese skins = test: Skin tone (a*, b*) and general skin quality observation (Examples 5 and 6); assay type: in vivo, human; details: Chinese skin and especially Indian skin
# Description: […]. The a* (rosy-red tone) and b* (yellow tone) components of the skin tone were monitored.
# Over the 28-day period, the a* (rosy-red tone) component of Indian skin increased, and the b* (yellow tone) component of Indian and Chinese skins decreased. […] Before starting the study, all subjects' melanin index, L*a*b* and ITA value were measured at the tested site using Mexameter MX18 and Courage+Khazaka (CK) Colorimeter CL 400. Photos and instrument measurements were taken at the start of the testing (Day 0), during the testing (D2, D5, D7, D9, D12) and after the testing (D14, D21 and D28). […] Each subject applied 5 products on the left arm. Subjects wore an arm sleeve over part of the right arm for the occluded site, so as to provide 2 negative controls, one occluded from light and UV-radiation (right arm) and one covered under fabric (left arm) so as to understand the effect of melanogenesis even when no light is passing through. The tested areas were evaluated on their skin melanin index, L*a*b* and ITA after D2, D5, D7, D9, D12, D14, D21 and D28 of application using Mexameter MX 18 and CK Colorimeter CL400.
# As part of the same experiment above, general skin quality effects were also observed.
# [6] = B16 cultured melanocyte cells, 3 days incubation, melanin OD at 480 nm
# [7] = Melanocyte, 72 h, B16 cultured melanocyte cells, 3 days incubation, melanin OD at 480 nm; read-out: IC50, melanogenesis inhibition
# [8] = Melanocyte, 72 h; read-out: IC50, melanogenesis inhibition
molecule,measurement,setting,value
"CC1=CC(=O)[N-]S(=O)(=O)O1.[K+] [Acesulphame K (ASK), Acesulphame K (Potassium Acesulphame)]",IC50,"B16 melanocyte cells [1]; Melanocyte, 72 h, read-out: IC50, melanogenesis inhibition",58 µg/mL
"CC(=O)Oc1ccccc1C(=O)O [Acetylsalicylic Acid, Acetyl Salicylic Acid]","IC50, melanogenesis inhibition",B16 melanocyte cells [1]; [6],0.262 g/L
"O=C(O)c1cc(O)[nH]c(=O)c1 [Citrazinic Acid, Citrazinic acid]","IC50, melanogenesis inhibition",B16 melanocyte cells [1]; [6],0.077 g/L
same,IC50,B16 melanocyte cells [1]; [7],59 to 262 µg/mL
O=C1O[C@H]([C@H](O)CO)C(O)=C1O [Erythorbic Acid],IC50,B16 melanocyte cells [1]; [7],73 µg/mL
CCc1occc(=O)c1O [Ethyl Maltol],"IC50, melanogenesis inhibition",B16 melanocyte cells [1]; [6],0.059 g/L
same,IC50,B16 melanocyte cells [1]; [7],59 to 262 µg/mL
same,concentrations resulting in cell toxicity,B16 melanocyte cells [2]; mouse,greater than 100 μM
Nc1nc2[nH]cnc2c(=O)[nH]1 [Guanine],IC50,B16 melanocyte cells [1]; [8],56 µg/mL
"Nc1nc2c(ncn2[C@@H]2O[C@H](COP(=O)(O)O)[C@@H](O)[C@H]2O)c(=O)[nH]1 [Guanosine Monophosphate, Guanosine Mono- phosphate]",IC50,B16 melanocyte cells [1]; [7],70 µg/mL
O=c1[nH]cnc2[nH]cnc12 [Hypoxanthine],IC50,B16 melanocyte cells [1]; [7],70 µg/mL
O=c1[nH]c2ccccc2c(=O)o1 [Isatoic Anhydride],IC50,B16 melanocyte cells [1]; [8],132 µg/mL
"O=c1cc(CO)occ1O [Kojic acid (Standard), Kojic acid, reference compound]",IC50,B16 melanocyte cells [1]; [7],51 µg/mL
"Cc1occc(=O)c1O [Maltol, 3-hydroxy-2-methyl-4H-pyran-4-one]",inhibition of the growth of P. aeruginosa,Pseudomonas aeruginosa,completely inhibited
same,IC50,B16 melanocyte cells [1]; [7],65 µg/mL
same,cytotoxic activities on B16 cells,B16 melanocyte cells [2],no real cytotoxic activities
same,cytotoxic activities on intact human skin,[3],no real cytotoxic activities
O=C1NC(=O)c2ccccc21 [Phthalimide],IC50,B16 melanocyte cells [1]; [7],89 µg/mL
"O=C1NS(=O)(=O)c2ccccc21 [Saccharin, 2H-1lamda 6,2-benzothiazol-1,1,3-trione]",cytotoxic activities on B16 cells,B16 melanocyte cells [2],no real cytotoxic activities
Cn1cnc2c1c(=O)[nH]c(=O)n2C [Theobromine],IC50,B16 melanocyte cells [1]; [7],37 µg/mL
O=c1cc[nH]c(=O)[nH]1 [Uracil],IC50,B16 melanocyte cells [1]; [7],143 µg/mL
"O=C1O[C@H]([C@@H](O)CO)C(O)=C1O[C@H]1O[C@H](CO)[C@@H](O)[C@H](O)[C@H]1O [ascorbic acid-2-glucoside (AA2G), ascorbic acid-2-glucoside]",viscosity of the cream,[4],"26,000 mPa·s"
NC(=O)c1cccnc1 [niacinamide],subjects who observed and reported lightening of their skin,[5],82%
same,effects on a* and b* skin tone compared with the maltol/saccharin cream,Indian and Chinese skins,diametrically opposite effects
Dehydroacetic Acid [Dehydroacetic Acid (DHAA)],"IC50, melanogenesis inhibition",B16 melanocyte cells [1],0.073 g/L
